Calls of active or inactive are those of the source.
Columns and labels:
[1] = biological target: Adenosylmethionine-8-amino-7-oxononanoate aminotransferase (Mycobacterium tuberculosis, UniProt P9WQ81); experiment: Mycobacterium tuberculosis BioA enzyme inhibitor Measured in Biochemical System Using Plate Reader - 2163-02_Inhibitor_Dose_CherryPick_Activity.; type: functional, Mycobacterium tuberculosis UT205
cells [2] = type: functional, cell-based
cells [3] = type: functional, cell-based; remark: listed apart in the source
[4] = biological target: Peroxisome proliferator-activated receptor gamma/Nuclear receptor coactivator 2 (Homo sapiens, UniProt P37231); experiment: (§1) TR-FRET dose response biochemical High Throughput Screening assay for agonists of the steroid receptor coactivator 2 (SRC-2) recruitment by the peroxisome proliferator-activated receptor gamma (PPAR gamma): non-selective agonists. [Related pubchem assays: 1297, 1032 ]; type: functional
Protein Wnt-3a = Protein Wnt-3a (Mus musculus, UniProt P27467); experiment: Wnt3a-driven reporter signaling inhibition, dose response, selectivity assay for Gli-SUFU antagonist project, Wnt-LIGHT cells, luminescence (AID 651570); type: functional; conditions: read-out: IC50_Mean;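 also: Wnt-LIGHT reporter cells stimulated with conditioned medium from Wnt3a-producing cells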
[5] = biological target: Peroxisome proliferator-activated receptor gamma/Nuclear receptor coactivator 3 (Homo sapiens, UniProt P37231); experiment: as §1, with “3 (SRC-3)” for “2 (SRC-2)”, “1301 (Confirmation screen.), 1048 (Primary screen.)]” for “1297, 1032 ]”; type: functional
[6] = biological target: Peroxisome proliferator-activated receptor gamma/Nuclear receptor coactivator 1 (Homo sapiens, UniProt P37231); experiment: as §1, with “1 (SRC-1)” for “2 (SRC-2)”, “assays (depositor defined):AID1300, AID1808, AID504735, AID631]” for “assays: 1297, 1032 ]”; type: protein assay
[7] = biological target: Photoreceptor-specific nuclear receptor (Homo sapiens, UniProt Q9Y5X4); type: functional, cell-based;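 also: CHO-S cells with Gal4-NCOR and VP16-NR2E3 two-hybrid luciferase reporter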
[8] = biological target: T1, Corticotropin-releasing factor receptor 2/Corticotropin-releasing factor-binding protein (Homo sapiens, UniProt P24387+Q13324); experiment: Dose Response confirmation of uHTS hits for small molecule antagonists of the CRF-binding protein and CRF-R2 receptor complex.; type: functional; conditions: read-out: IC50_Mean
T1 sequence (Q13324 whole entry): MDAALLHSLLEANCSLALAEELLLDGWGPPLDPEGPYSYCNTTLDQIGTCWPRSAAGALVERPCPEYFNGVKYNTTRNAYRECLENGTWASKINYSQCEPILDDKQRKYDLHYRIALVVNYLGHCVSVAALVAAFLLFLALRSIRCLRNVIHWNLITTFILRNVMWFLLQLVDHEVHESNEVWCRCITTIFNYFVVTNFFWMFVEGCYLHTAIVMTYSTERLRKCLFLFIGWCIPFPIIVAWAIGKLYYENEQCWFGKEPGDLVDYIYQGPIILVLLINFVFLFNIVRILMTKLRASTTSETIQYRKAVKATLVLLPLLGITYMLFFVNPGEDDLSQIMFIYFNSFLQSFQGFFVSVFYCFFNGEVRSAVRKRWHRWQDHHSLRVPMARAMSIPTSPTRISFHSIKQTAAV
T1 sequence (P24387 whole entry): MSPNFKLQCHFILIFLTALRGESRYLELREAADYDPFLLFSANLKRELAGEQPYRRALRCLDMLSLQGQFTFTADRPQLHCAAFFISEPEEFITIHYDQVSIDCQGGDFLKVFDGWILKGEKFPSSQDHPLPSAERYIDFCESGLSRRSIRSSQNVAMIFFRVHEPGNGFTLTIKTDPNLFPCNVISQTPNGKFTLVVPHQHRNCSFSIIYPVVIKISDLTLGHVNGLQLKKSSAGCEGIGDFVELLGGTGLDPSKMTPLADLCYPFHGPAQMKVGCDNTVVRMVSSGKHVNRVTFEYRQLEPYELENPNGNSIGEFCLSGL

[9] = biological target: T1, Corticotropin-releasing factor receptor 2/Corticotropin-releasing factor-binding protein; experiment: activators of CRF receptor 2 with binding protein – uHTS hits, confirmation (AID 602473); type: functional; conditions: read-out: EC50_Mean
[10] = CRF-BP/CRF-R2 complex antagonists, dose response, cell-based, uHTS hits, 384-well (AID 651639); type: functional, Homo sapiens; conditions: read-out: IC50_Mean
Caspase-3 = biological target: T2, Caspase-3 (Homo sapiens, UniProt P42574); experiment: caspase-3 inhibitors as off-family protease, SAR follow-up, selectivity assay for SENP protease inhibitor project, biochemical, luminescence, set 2 (AID 588599); type: functional
T2 sequence (P42574 whole entry): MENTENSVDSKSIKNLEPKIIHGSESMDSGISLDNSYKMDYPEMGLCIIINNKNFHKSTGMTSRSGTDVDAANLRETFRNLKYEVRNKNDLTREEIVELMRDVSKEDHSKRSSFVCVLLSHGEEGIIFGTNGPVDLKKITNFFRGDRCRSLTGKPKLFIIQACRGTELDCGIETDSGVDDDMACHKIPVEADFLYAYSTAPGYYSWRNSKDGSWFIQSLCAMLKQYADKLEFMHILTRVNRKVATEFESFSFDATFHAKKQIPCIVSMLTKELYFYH

[11] = biological target: T3, Sentrin-specific protease 7 (Homo sapiens, UniProt Q9BQF6); experiment: SENP7 protease inhibitors, SAR follow-up, biochemical, luminescence, set 2 (AID 588600); type: functional
T3 sequence (Q9BQF6 whole entry): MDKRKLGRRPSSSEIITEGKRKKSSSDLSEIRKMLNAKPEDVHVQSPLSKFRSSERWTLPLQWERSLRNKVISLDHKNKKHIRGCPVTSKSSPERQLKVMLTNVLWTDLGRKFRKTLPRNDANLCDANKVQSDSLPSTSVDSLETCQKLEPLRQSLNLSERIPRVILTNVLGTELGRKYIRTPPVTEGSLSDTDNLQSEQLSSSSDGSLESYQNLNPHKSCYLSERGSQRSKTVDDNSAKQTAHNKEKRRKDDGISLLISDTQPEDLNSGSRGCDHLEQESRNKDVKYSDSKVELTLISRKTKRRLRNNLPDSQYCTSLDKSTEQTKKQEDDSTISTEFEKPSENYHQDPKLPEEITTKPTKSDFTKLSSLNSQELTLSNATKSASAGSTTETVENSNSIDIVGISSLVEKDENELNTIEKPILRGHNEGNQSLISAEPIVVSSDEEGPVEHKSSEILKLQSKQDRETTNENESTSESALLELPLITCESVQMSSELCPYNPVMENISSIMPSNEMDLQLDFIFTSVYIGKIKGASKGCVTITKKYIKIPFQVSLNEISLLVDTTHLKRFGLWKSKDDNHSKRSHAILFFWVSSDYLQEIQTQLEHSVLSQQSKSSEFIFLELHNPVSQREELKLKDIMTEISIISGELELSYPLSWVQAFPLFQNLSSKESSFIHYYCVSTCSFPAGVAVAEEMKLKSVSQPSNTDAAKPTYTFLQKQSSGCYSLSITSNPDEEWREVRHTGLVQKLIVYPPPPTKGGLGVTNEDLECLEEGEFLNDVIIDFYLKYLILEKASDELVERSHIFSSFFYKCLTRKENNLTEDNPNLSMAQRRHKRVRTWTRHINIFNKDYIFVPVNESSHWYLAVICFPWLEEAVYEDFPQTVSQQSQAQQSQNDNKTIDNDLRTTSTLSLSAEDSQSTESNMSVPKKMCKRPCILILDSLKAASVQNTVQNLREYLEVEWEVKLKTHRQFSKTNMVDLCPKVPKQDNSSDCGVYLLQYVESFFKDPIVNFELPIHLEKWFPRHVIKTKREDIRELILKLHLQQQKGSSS

[12] = biological target: T4, Sentrin-specific protease 8 (Homo sapiens, UniProt Q96LD8); experiment: SENP8 protease inhibitors, SAR follow-up, biochemical, luminescence, set 2 (AID 588601); type: functional
T4 sequence (Q96LD8 whole entry): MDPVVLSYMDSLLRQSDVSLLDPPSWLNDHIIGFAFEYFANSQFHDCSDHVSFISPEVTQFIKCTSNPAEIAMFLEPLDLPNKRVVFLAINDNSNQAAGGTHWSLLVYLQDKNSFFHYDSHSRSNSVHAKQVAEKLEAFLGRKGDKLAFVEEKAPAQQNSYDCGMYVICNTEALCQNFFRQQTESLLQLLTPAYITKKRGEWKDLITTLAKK

[13] = biological target: T5, Sentrin-specific protease 6 (Homo sapiens, UniProt Q9GZR1); experiment: SENP6 protease inhibitors, SAR follow-up, biochemical, luminescence, set 2 (AID 588598); type: functional
T5 sequence (Q9GZR1 whole entry): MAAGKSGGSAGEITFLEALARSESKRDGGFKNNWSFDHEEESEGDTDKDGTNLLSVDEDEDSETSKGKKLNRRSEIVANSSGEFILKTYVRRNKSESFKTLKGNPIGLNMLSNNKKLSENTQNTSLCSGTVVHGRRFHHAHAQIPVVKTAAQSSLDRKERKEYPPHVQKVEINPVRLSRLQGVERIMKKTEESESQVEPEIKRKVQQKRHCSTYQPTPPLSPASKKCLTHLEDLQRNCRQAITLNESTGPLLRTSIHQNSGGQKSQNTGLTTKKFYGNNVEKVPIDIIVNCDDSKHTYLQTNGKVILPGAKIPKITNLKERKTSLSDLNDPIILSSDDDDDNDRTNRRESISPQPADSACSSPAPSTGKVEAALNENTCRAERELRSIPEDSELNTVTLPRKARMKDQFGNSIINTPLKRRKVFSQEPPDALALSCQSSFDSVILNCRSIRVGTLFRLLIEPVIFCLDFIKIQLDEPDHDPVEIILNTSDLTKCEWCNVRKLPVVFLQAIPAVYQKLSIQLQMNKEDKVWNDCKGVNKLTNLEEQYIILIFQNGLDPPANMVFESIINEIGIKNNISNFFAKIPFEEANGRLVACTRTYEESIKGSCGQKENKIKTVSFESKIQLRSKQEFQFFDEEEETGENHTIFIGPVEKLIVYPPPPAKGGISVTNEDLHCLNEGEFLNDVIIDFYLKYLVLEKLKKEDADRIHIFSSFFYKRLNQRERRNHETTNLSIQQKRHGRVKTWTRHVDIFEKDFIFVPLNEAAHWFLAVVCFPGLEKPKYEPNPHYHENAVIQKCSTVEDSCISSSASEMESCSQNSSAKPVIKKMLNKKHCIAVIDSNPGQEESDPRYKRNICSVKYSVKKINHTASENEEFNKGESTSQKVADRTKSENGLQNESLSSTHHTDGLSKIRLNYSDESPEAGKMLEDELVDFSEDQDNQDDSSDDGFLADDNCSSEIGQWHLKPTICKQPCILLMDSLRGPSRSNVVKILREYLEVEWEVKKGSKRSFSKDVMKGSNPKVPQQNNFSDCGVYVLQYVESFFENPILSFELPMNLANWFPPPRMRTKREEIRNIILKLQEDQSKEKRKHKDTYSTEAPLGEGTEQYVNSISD

Melanocortin receptor 4 = Melanocortin receptor 4 (Homo sapiens, UniProt P32245); type: functional, cell-based;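 also: Cell-based assay with luminescence read-out, confirmatory dose-response testing for agonist activity of biased ligands at MC4R; human U2OS cells with tagged receptor and beta-arrestin; potency of agonists that increase receptor coupling to beta-arrestin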
H9c2 = experiment: cells; type: functional, cell-based; conditions: Rattus norvegicus, H9c2, Myocardium;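 also: confirmatory concentration-response retest of ultra-high-throughput screening hits for modulation of myocardial damage; cell death induced by hydrogen peroxide oxidative stress; compound pretreatment for 60 min then peroxide exposure for 2 h; potency is for protecting the cells against peroxide damage rather than for killing them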
[14] = ARNT/TACC3 interaction disruptors, potency, confirmation, biochemical, AlphaScreen, cherry-picked samples (AID 651703); type: functional, Homo sapiens;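 also: His-tagged ARNT PAS-B domain paired with GST-TACC3 E629A dimer coactivator fragment; potency of inhibitors that break up the complex and lower AlphaScreen signal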
[15] = AlphaScreen signal interference compounds, dose response, artefact control for ARNT-TACC3 interaction inhibitor project, biochemical, luminescence, cherry-pick (AID 651705); type: functional;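 also: AlphaScreen bead proximity signal that flags compounds interfering with the detection technology; potency reflects signal decrease which marks the compound as an assay artifact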
[16] = inhibitors of HIV Env-driven cell fusion, dose response, cherry-pick (AID 652057); type: functional, cell-based
[17] = biological target: Mitogen-activated protein kinase 10 (Homo sapiens, UniProt P53779); experiment: Dose response biochemical screening assay for inhibitors of c-Jun N-Terminal Kinase 3 (JNK3). [Related pubchem assays: 746 ]
[18] = off-target signal loss in HeLa-CEM21 co-culture – HeLa F-luc CTL cells, cherry-picked, counter-screen for HIV-1 Env fusion inhibitor project, dose response (AID 652040); type: functional, cell-based;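 also: potency for signal decrease marking cytotoxic or nonspecific inhibition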
Interleukin-8 = biological target: T6, Interleukin-8 (Homo sapiens, UniProt P10145); experiment: Dose Response confirmation of uHTS small molecule hits for cystic fibrosis induced NFkb Inhibitors in a PAF-induced IL8 counterscreen.; type: functional; conditions: read-out: IC50_Mean
T6 sequence (P10145 whole entry): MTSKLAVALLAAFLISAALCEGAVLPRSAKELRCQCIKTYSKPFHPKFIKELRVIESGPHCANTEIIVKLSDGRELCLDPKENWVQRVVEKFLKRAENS

[19] = inhibitors of clade B AD8 Env fusion, dose response, cell-based, cherry-pick (AID 652062); type: functional;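 also: luciferase signal from cell-cell fusion driven by HIV-1 clade B AD8 Env; potency is for inhibitors of fusion seen as a drop in luminescence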

Adenosylmethionine-8-amino-7-oxononanoate aminotransferase, sequence (P9WQ81 whole entry): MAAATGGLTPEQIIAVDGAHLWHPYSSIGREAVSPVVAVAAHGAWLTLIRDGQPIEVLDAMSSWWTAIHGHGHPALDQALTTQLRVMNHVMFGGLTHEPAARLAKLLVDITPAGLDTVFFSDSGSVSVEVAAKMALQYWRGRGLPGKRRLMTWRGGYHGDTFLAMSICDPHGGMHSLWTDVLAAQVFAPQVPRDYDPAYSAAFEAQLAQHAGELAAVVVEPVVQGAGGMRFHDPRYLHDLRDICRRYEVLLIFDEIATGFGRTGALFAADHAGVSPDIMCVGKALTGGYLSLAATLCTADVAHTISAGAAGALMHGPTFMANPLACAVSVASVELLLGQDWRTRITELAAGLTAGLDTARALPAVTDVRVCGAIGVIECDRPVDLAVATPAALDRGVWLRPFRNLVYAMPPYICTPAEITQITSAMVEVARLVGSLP
Photoreceptor-specific nuclear receptor, sequence (Q9Y5X4 whole entry, the tested form may be a part): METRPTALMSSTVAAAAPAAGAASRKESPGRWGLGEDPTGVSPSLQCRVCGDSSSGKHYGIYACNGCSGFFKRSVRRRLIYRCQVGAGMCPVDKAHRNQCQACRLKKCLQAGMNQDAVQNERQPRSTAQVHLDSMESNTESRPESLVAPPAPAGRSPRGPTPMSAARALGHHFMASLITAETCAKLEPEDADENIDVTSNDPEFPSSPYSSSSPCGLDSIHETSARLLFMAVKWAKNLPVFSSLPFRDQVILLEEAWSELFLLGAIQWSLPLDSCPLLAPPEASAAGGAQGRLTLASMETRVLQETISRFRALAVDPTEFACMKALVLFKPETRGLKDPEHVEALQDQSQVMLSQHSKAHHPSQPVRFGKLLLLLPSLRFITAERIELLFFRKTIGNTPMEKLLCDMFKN
Melanocortin receptor 4, sequence (P32245 whole entry): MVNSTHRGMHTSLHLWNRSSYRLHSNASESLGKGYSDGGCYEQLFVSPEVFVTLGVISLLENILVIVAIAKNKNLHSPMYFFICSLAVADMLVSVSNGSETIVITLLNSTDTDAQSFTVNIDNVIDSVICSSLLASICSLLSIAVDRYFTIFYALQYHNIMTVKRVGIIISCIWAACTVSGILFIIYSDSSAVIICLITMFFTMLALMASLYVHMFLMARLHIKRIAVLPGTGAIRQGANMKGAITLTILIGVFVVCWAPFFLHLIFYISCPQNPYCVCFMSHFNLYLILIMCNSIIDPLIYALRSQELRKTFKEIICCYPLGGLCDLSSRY
Protein Wnt-3a, sequence (P27467 whole entry): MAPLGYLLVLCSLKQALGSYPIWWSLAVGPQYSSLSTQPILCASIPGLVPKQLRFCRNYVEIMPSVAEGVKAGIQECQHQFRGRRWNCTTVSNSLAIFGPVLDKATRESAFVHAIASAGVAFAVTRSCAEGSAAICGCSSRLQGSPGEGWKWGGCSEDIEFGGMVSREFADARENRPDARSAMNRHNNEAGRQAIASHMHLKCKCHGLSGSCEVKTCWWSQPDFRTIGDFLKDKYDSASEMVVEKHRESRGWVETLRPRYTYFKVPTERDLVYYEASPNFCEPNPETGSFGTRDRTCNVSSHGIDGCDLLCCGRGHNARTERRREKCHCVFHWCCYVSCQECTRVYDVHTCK
Mitogen-activated protein kinase 10, sequence (P53779 whole entry, the tested form may be a part): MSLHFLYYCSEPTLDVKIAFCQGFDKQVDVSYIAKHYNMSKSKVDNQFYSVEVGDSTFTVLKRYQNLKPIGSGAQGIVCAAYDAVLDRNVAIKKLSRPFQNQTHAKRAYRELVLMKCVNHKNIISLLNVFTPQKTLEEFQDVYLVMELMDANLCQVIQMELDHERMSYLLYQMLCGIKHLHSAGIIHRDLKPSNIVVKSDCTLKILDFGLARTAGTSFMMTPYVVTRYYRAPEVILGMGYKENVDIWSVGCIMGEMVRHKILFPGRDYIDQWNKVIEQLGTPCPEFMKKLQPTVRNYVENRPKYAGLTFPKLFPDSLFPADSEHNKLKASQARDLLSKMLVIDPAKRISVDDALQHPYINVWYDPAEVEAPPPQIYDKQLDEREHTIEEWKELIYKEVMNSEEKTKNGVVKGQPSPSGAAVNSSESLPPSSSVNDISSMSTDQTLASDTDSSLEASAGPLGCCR
Peroxisome proliferator-activated receptor gamma/Nuclear receptor coactivator 1, sequence (P37231 whole entry, the tested form may be a part): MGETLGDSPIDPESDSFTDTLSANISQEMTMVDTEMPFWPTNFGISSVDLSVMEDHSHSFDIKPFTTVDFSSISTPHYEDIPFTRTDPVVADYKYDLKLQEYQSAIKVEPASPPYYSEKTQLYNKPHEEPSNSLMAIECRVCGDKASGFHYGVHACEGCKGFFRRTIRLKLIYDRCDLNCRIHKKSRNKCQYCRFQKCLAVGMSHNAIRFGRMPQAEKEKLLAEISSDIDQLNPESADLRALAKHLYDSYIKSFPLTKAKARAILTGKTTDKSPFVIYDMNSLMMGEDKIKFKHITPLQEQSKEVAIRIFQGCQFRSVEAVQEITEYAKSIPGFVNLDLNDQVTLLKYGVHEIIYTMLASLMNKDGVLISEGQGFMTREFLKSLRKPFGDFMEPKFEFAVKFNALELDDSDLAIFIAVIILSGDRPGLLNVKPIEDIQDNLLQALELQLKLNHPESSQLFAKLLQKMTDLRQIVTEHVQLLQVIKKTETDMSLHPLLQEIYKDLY
Peroxisome proliferator-activated receptor gamma/Nuclear receptor coactivator 1, sequence (Q15788 whole entry, further chain, the tested form may be a part): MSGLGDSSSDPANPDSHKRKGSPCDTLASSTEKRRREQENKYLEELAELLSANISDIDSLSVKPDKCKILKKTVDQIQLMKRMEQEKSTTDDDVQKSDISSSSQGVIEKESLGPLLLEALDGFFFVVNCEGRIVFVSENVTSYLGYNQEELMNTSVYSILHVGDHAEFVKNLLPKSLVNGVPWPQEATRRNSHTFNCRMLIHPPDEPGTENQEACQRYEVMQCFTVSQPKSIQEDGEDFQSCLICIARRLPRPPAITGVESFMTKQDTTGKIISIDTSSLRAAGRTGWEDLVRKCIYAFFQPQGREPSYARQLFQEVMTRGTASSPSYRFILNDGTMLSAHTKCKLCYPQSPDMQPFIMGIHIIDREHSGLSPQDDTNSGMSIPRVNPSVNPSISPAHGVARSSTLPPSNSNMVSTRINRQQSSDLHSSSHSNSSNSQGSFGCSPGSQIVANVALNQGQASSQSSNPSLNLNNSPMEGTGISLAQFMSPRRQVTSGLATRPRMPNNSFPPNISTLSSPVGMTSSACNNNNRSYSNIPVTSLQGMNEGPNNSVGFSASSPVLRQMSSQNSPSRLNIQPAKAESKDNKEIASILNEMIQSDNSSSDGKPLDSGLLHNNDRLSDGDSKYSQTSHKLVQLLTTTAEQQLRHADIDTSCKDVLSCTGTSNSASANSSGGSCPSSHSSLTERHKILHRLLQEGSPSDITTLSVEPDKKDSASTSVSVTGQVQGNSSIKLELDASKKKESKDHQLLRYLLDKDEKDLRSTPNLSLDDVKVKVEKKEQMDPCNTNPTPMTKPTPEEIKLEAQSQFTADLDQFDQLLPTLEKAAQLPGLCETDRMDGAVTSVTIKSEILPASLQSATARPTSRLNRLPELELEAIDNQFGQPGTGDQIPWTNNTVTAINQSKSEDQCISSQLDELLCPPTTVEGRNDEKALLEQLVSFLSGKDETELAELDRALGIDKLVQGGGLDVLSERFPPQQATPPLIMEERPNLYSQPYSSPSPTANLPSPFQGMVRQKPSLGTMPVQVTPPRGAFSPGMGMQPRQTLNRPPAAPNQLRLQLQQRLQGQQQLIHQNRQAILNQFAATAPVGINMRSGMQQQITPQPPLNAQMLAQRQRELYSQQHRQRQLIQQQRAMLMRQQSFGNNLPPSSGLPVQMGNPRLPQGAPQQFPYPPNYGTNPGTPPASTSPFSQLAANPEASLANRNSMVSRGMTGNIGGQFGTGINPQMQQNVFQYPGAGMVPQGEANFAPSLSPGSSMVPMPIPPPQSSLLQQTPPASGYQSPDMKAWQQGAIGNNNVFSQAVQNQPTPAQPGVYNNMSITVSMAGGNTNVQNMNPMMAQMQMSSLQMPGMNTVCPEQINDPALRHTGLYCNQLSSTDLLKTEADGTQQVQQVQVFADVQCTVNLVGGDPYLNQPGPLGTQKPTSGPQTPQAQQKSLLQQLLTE

Q: With `CC(=O)c1ccc(C(=O)N2CCCC(Nc3ccc(C(C)C)cc3)C2)s1` (stereo not drawn) as the compound, how does the AC50 [1] read?
A: Its AC50 is 0.833 µM (active).

Q: What about the EC50 (cells [2]) of the same compound?
A: Its EC50 is > 350 µM (not active).

Q: And the EC50 (cells [3])?
A: Its EC50 is > 350 µM (not active).

Q: Which AC50 [1] does the source give for `O=C(Nc1ccc(F)c(F)c1)C1CCN(S(=O)(=O)c2cccs2)CC1` here?
A: The AC50 was 0.564 µM (active).

Q: Which results are given for `CCOC(=O)CSc1c(-c2cccs2)[nH]c2ccccc12`?
A: EC50 [4]: 13.8 µM (not active); IC50 (Protein Wnt-3a): 17 µM (active); EC50 [5]: 53.8 µM (not active); EC50 [6]: 13.2 µM (inactive)

Q: Which results are given for `O=[N+]([O-])c1ccc(NS(=O)(=O)c2ccccc2)c(Cl)c1`?
A: IC50 [7]: 3.22 µM (active); IC50 [8]: 4.45 µM (active); EC50 [9]: > 53 µM (inactive); IC50 [10]: > 20 µM (inactive)

Q: Which IC50 [7] does the source give for `O=C1NC(=O)C(=Cc2ccc(Cl)cc2Cl)S1` here?
A: The IC50 was 4.65 µM (active).

Q: Which IC50 (Caspase-3) does the source give for `CN(/N=C/c1c[nH]c2ccccc12)c1cnn(-c2ccc(F)c(Cl)c2)c(=O)c1Cl` here?
A: The IC50 was > 99 µM (inactive).

Q: What about the EC50 (cells [2]) of the same compound?
A: The EC50 was 55.6 µM (active).

Q: And the IC50 [11]?
A: Its IC50 is > 99 µM (inactive).

Q: And the IC50 [12]?
A: Its IC50 is > 99 µM (inactive).

Q: And the IC50 [13]?
A: The IC50 was > 99 µM (inactive).

Q: And the EC50 (cells [3])?
A: Its EC50 is > 350 µM (not active).

Q: With `COc1cccc(-c2cnc3c(NC=O)cc(-c4ccc(O)c(OC)c4)cn23)c1` as the compound, how does the EC50 (Melanocortin receptor 4) read?
A: Its EC50 is > 89.2 µM (inactive).

Q: And the IC50 (H9c2)?
A: The IC50 was > 79 µM (inactive).

Q: Which results are given for `Cc1ccccc1/C=N/N1C(=O)CSC1=S`?
A: AC50 [14]: 109 µM (active); AC50 [15]: 135 µM (active)

Q: Which results are given for `COc1ccc2ncn(-c3ccccc3)c2c1`?
A: AC50 [16]: 11.6 µM (active); IC50 [17]: 34.9 µM (not active); AC50 [18]: 20.1 µM (active); IC50 (Interleukin-8): 17.3 µM (inactive); AC50 [19]: 40.2 µM (active)
